Columns and labels:
[1] = Photosensitivity screening: H2O2 formation by antioxidant candidates upon light exposure (Amplex Ultra Red Assay); format: physicochemical
Protocol: As a screening tool, antioxidant candidates were exposed to light for four hours at 250 W/m^2 and the resulting H2O2 formation was quantified by the Amplexassay. Specifically, antioxidants were prepared to 1 mM in 20 mM histidine acetate buffer at pH 5.5. The 1 mM antioxidant solutions were aliquoted into glass vials (2 mL/glass vial) and exposed to four hours of light at 250 W/m^2 in an Atlas SunTest CPS+ Xenon Test Instrument (Chicago, Ill.). Total UV dose was 90 watt-hours/square meter and total visible dose was 0.22 million lux hours over the 4-hour period. Control vials were wrapped in aluminum foil and treated similarly. The amount of hydrogen peroxide generated after exposure to light was measured using the Amplex® Ultra Red Assay (Invitrogen, Carlsbad, Calif.) following the manufacturer's recommended procedure. On addition of horseradish peroxidase (HRP), the dye reacted 1:1 stoichiometrically with H2O2, resulting in the production of fluorescent oxidation product resorufin. In this study, fluorescence readings were obtained using a Spectra Max M2 Micro-plate Reader (Molecular Devices, Sunnyvale, Calif.) with excitation and emission set at 560 nm and 590 nm, respectively. Final H2O2 concentrations were determined using a standard curve ranging from 0 μm to 20 μm. […]

mAb1 [2] = assay: mAb1 light stress, eight hours, with L-Trp and L-Met; Fab/Fc oxidation by papain digest RP-HPLC; format: physicochemical, human; details: 5 mg/mL mAb1, 8 h light at 250 W/m^2, L-Trp at 1 mM
Protocol: L-tryptophan (L-Trp), an antioxidant used in protein formulations, has been recently shown to be photosensitive (Igarashi et al., Anal Sci 23(8):943-8 (2007)) and to have the ability to produce H2O2 upon light exposure. […] Control vials were wrapped in aluminum foil and treated similarly. After light exposure, solutions were prepared for analysis by reverse-phase HPLC. […] Following incubation, 900 μL of the solution was combined with 100 μL of 1 M dithiothreitol (DTT) and incubated for another thirty minutes at 37° C. Samples were then run on an Agilent, Inc. 1100/1200 HPLC system (Santa Clara, Calif.) equipped with UV detection at 280 nm in conjunction with a Varian, Inc. Pursuit 3 μm, 2 mm ID×250 mm diphenyl column (Palo Alto, Calif.). Mobile Phase A was 0.1% TFA in water. Mobile Phase B was 0.1% TFA in acetonitrile. The mobile phase gradient increased linearly from 34% B at 0 minutes to 43% B at 50.0 minutes, then to 95% B at 50.1 minutes. The gradient remained at 95% B until 60.1 minutes, and then decreased linearly from 95% B to 34% B between 60.1 and 60.2 minutes. The gradient remained at 34% B until the end of the cycle at 80.2 minutes. The column temperature was 65° C., total flow rate was 0.2 mL/min, and injection volume of each sample was 6 μL. Chromatograms were then integrated for quantification of oxidation.

[3] = H2O2 generation by free L-Trp upon light exposure for 3 hours (Amplex assay); format: physicochemical
Protocol: It was previously reported that L-Trp produced H2O2 via superoxide ion and in a sub-stoichiometric fashion while antibodies under similar conditions were producing catalytic amounts (Wentworth et al., Science 293(5536):1806-11 (2001); McCormick et al., Journal of the American Chemical Society 100:312-313 (1978)). To test the susceptibility of free L-Trp under pharmaceutically relevant conditions, such as under both ICH and ambient light conditions, formulations comprising 0.32 mM to 7.5 mM of L-Trp were exposed for 3 hours at 250 W/m^2 UV light and about 150 k lux visible light. Samples were taken and analyzed immediately via the Amplex assay to detect the amount of H2O2 generated under these conditions. […] When L-Trp was incubated with a combination of 50 mM NaN3 and 150 U superoxide dismutase (SOD) or SOD alone, significant amounts of H2O2 were still detected in the samples not containing NaN3.

mAb1 [4] = assay: Ambient light exposure of 50 mg/mL mAb1 formulations containing L-Trp (Amplex assay, RP-HPLC); format: physicochemical, human
From the text: While confirming the photosensitivity of free L-Trp under ICH light conditions, the effect of ambient light that was typically seen in laboratories was studied. Measurements using a DLM1 digital light meter in various labs indicated an average of 300 lux on a lab benchtop (with white fluorescent lighting), an average of 3000 lux in a laminar flow hood (with white fluorescent lighting) and about 10000 lux for a windowsill exposed to southeast sunlight. […] Peroxide production increased with both luminosity (300, 3000, and 10000 lux) and time (1, 3, and 7 days). […] These levels of light exposure and time were determined to be pharmaceutically relevant for drug substance handling under ambient light and temperature before fill/finish operations and potentially while inspecting drug product vials.

mAb1 [5] = assay: mAb1 Fenton stress study (H2O2 + Fe); Fab/Fc oxidation by RP-HPLC; format: physicochemical, human; details: 1 mM, 10 ppm H2O2, 0.2 mM Fe(III), 40° C. for 3 hours
Protocol: Antioxidants were added at a final concentration of 1 mM. […] After incubation, each reaction was quenched by addition of 100 mM L-Met and then prepared for analysis by reverse-phase HPLC as described above.
The Fenton reaction, using a mixture of H2O2 and Fe ions, generates oxidation through a metal catalyzed, hydroxyl radical reaction (Prousek et al., Pure and Applied Chemistry 79(12):2325-2338 (2007)). This reaction generated Fab, i.e. tryptophan, oxidation in mAb1. The reaction was also carried out in the presence of select antioxidants that were useful against both AAPH and light induced oxidation as reported above. Data related to the antioxidant properties against Fenton mediated reaction were analyzed using the RP-HPLC assay as described above. The Fenton reaction used 10 ppm of H2O2 and 0.2 mM of Fe(III). The reaction was incubated at 40° C. for 3 hours, quenched with 100 mM L-Met and analyzed using RP-HPLC after papain digest. All samples were the average of three separate vials, and mAb1 control (Ref Mat) was one vial with five independent injections on the HPLC. […] In regards to protection against Fc oxidation, the tested excipients (other than salicylic acid) performed slightly better than L-Trp.

For N[C@@H](Cc1c[nH]c2ccccc12)C(=O)O [L-Trp, L-Tryptophan], the “(H2O2 produced by Compound)/(H2O2 produced by L-Trp)” value ([1]; 1 mM in 20 mM histidine acetate pH 5.5, four hours of light at 250 W/m^2) was 1, the “H2O2 production upon light exposure compared to L-Trp (in words)” value ([1]; 1 mM, 20 mM L-His-acetate pH 5.5, 4 h light, 0.22 million lux hours) was “produced more H2O2” and the “Fc oxidation of mAb1” value (mAb1 [2]) was “over 20%”. For the same compound, the “Fab oxidation of mAb1” value (mAb1 [2]; label mAb1 = No Excipient) was about 9%, the “H2O2 generated by free L-Trp upon light exposure” value ([3]; 0.32 mM to 7.5 mM L-Trp, 3 hours at 250 W/m^2 UV light and about 150 k lux visible light) was “large quantity of H2O2” and the “H2O2 generation by L-Trp in the presence of sodium azide” value ([3]; 50 mM sodium azide, 3 hours light) was “reduced greatly”. The “Heavy chain Fab oxidation (W53) with increased luminosity (in words)” value (mAb1 [4]; 50 mg/mL mAb1 with 3.2 mM L-Trp, 10 days ambient light) was “increased heavy chain Fab oxidation”, the “% Fc oxidation in mAb1” value (mAb1 [4]; 50 mg/mL mAb1 with 3.2 mM L-Trp, ambient light 300 lux) was 5% and the “% Fc oxidation in mAb1” value (mAb1 [4]; 50 mg/mL mAb1 with 3.2 mM L-Trp, ambient light 10000 lux) was 40%. For the same compound, the “Hydrogen peroxide produced under ambient light” value (mAb1 [4]; L-Trp in formulation buffers containing 50 mg/mL mAb1, 300, 3000, 10000 lux, 1, 3, 7 days) was “in the micromolar range” and the “Protection of Fab oxidation with respect to the no excipient case” value (mAb1 [5]) was “about 25%”.
